Laboratory results taken from patent US20070129358A1, “Sbstituted chroman derivatives, processes for their preparation and their use as antiinflammatory agents” (priority 2005, published 2007).

Experiments:
[1] = target: T1, glucocorticoid receptor (GR) (Homo sapiens, UniProt P04150); assay: Glucocorticoid receptor binding with recombinantly prepared receptor, [3H]-dexamethasone as reference; details: cytosol preparations of Sf9 cells infected with recombinant baculoviruses coding for GR
T1 construct: made in house; host or cells: Sf9 cells infected with recombinant baculovirus (cytosol preparation)
T1 sequence (P04150 1-777): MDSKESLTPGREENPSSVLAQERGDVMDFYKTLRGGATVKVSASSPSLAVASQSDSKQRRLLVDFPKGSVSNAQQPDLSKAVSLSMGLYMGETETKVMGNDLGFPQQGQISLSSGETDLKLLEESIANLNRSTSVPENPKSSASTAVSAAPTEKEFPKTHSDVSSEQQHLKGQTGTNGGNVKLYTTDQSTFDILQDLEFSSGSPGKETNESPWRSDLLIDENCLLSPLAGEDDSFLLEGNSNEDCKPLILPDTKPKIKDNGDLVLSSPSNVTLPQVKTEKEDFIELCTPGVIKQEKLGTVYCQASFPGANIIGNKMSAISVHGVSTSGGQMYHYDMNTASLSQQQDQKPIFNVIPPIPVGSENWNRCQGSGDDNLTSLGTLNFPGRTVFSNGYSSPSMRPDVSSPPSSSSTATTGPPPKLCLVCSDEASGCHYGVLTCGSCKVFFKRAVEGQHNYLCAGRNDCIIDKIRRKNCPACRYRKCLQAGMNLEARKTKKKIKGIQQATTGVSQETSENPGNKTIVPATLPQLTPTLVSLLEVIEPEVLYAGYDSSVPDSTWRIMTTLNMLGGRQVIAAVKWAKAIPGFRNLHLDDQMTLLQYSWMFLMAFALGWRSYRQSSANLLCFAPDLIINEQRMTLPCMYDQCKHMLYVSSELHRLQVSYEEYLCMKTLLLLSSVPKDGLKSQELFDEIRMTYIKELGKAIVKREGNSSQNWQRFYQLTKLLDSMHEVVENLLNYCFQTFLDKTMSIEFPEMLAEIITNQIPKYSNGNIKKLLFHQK
From the text: (§1) The binding of the substances to the glucocorticoid receptor (GR) and further steroid hormone receptors (mineral corticoid receptor (MR), progesterone receptor (PR) and androgen receptor (AR)) is examined with the aid of recombinantly prepared receptors. Cytosol preparations of Sf9 cells which had been infected with recombinant baculoviruses which code for the GR are employed for the binding studies. Compared with the reference substance [^3H]-dexamethasdne, the substances show a high affinity for the GR. Thus, an IC50(GR)=20 nM and IC50(PR) >1 μM was measured for the compound of example 1 and an IC50(GR)=30 nM and IC50(PR) >1 μM was measured for the compound of example 2.

[2] = target: T2, progesterone receptor (PR) (Homo sapiens, UniProt P06401); assay: Progesterone receptor binding with recombinantly prepared receptor
T2 construct: made in house
T2 sequence (P06401 1-933): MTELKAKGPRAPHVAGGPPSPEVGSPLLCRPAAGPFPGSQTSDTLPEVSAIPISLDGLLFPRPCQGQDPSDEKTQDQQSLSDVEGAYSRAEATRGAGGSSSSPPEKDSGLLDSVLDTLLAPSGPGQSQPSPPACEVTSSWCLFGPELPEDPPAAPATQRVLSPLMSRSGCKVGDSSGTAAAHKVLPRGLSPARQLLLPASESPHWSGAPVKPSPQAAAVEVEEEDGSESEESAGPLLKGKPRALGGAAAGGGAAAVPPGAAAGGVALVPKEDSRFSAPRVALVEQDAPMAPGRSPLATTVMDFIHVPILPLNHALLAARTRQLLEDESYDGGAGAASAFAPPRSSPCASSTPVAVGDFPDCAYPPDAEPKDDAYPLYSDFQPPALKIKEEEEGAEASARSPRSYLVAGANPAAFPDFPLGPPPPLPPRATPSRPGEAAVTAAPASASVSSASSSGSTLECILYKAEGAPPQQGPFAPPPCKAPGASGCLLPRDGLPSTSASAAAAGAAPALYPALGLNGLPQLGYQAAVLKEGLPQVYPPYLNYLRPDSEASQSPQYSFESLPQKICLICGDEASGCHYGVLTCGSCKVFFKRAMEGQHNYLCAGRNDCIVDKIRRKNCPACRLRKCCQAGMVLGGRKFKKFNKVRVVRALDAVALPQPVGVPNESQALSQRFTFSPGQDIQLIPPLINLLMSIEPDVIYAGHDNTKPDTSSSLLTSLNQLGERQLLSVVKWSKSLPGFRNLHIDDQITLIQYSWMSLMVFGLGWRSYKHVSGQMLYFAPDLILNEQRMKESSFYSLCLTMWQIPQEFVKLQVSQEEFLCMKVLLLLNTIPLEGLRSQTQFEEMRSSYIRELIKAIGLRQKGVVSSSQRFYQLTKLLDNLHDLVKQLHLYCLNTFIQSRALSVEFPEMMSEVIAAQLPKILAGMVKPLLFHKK
From the text: as §1

Row | IC50 [1] [µM] | IC50 [2] [µM] | Compound
1 | 0.03 | > 1 | CC1(CC(O)(CNc2cccc3[nH]c(=O)ccc23)C(F)(F)F)CCOc2ccccc21 (single isomer, unassigned) [Example 2, 5-{[2-Hydroxy-3-(4-methylchroman-4-yl)-2-trifluoro-methylpropyl]amino}quinolin-2{1H}-one]
2 | 0.02 | > 1 | O=c1ccc2c(NCC(O)(CC3CCOc4ccccc43)C(F)(F)F)cccc2[nH]1 (stereo not shown) [Example 1]
